The text below walks through data of US20220117938A1, “COMBINATON THERAPY WITH A DON PRODRUG AND AN IMMUNE CHECKPOINT INHIBITOR” (DRACEN PHARMACEUTICALS, INC., priority 2019, published 2022).

In data set [1] the test system is MC-38 tumors. Put plainly: Anti-tumor efficacy of Compound 1 with and without anti-PD-1 in the subcutaneous MC-38 model (Example 2D). The following applies: for MST: endpoint tumor volume 2000 mm^3; for T/C / TGI: day 16. The format is in vivo, Mus musculus. On the procedure:
Female C57BL/6 mice were inoculated subcutaneously at right flank with MC-38 cells for tumor development. Five days after tumor inoculation, 48 mice with tumor size ranging from 50-100 mm^3 (average tumor size 72 mm^3) were selected and assigned into six groups using stratified randomization with 8 mice per group based upon their tumor volumes. The treatments were started from the day of randomization (defined as D0), Group 1 was treated with Vehicle (Tween 80:Ethanol:Saline—5:5:90 v/v/v), s.c., qd×14, Group 2 was treated with Anti-PD-1 10 mg/kg i.p. q4d×4, Group 3 was treated with Compound 1 0.3 mg/kg s.c. q.d.×14, Group 4 was treated with Compound 1 0.3 mg/kg s.c. q.d.×14+Anti-PD-1 10 mg/kg i.p. q4d×4, Group 5 was treated with Compound 1 1 mg/kg s.c. q.d.×14, Group 6 was treated with Compound 1 1 mg/kg s.c. q.d.×14+Anti-PD-1 10 mg/kg i.p. q4d×4. The tumor sizes were measured three times per week during the treatment. The entire study was terminated on D37 after start of the treatment.
Animal Species: Mus musculus; Strain: […]; Age: 6-8 weeks; Sex: female; Body weight (at treatment start): 18-22 g.
The MC-38 tumor cells were maintained in vitro as a monolayer culture in DMEM medium supplemented with 10% heat inactivated fetal bovine serum and 100 μg/mL penicillin streptomycin at 37° C. in an atmosphere of 5% CO2 in air. The tumor cells were routinely subcultured twice weekly by trypsin-EDTA treatment. The cells growing to a confluency around 70%-80% were harvested and counted for tumor inoculation. The cultured MC-38 were harvested, re-suspended in base medium at a density of 1×10^7 cells/mL with viability >90%. Each mouse was inoculated subcutaneously at the right flank with 1×10^6 cells in 0.1 ml base medium for tumor development.
The treatments were started on day 5 after tumor inoculation when the tumor size reached 50-100 mm^3 (average tumor size 72 mm^3). Each group consisted of 8 tumor bearing mice.
The testing article was administrated at the dosing volume indicated to the mice according to the predetermined regimen as shown Table 2D-1. Testing article formulations were prepared according to standard procedures. Details regarding tumor measurements and endpoints, and statistical analysis are provided in EXAMPLE 3.
Tumor sizes were measured three times a week in two dimensions using a caliper, and the volume expressed in mm^3 using the formula: V=0.5 a×b^2 where a and b are the long and short diameters of the tumor, respectively. The tumor sizes were then used for the calculations of both tumor growth inhibition (TGI) and T/C values.
TGI is calculated for each group using the formula: […]
TVTreatment_DayN is the average tumor volume of a treatment group on a given day, TVTreatment_Day0 is the average tumor volume of the treatment group on the first day of treatment, TVVehicle_DayN is the average tumor volume of the vehicle control group on a given day, and TVVehicle_Day0 is the average tumor volume of the vehicle group on the first day of treatment.
The T/C value (in percent) is an indication of antitumor effectiveness, T/C (%)=RTVTreatment/RTVControl×100% (RTVTreatment: the mean RTV of the treatment group; RTVControl: the mean RTV of the vehicle treated group). RTV (relative tumor volume)=TVDayN/TVDay0. TVDayN and TVDay0 is the tumor volume on day N and Day 0 respectively. T/C (%)≤42% is considered as significant antitumor activity and <10% is considered as highly significant antitumor activity by the National Cancer Institute criteria.
Animal survival curve: When an individual animal reached to the termination endpoint (TV>2000 mm^3), the mouse was euthanized. The time from treatment initiation to the termination was deemed as its survival time. Survival curve was plotted by Kaplan-Meier method. Median survival time (MST) was calculated for each group. Increase of life span (ILS) was calculated according to the following formula: […]
ILS (%)>25% is considered as a biologically significant survival benefit. […]

The subject of data set [2] is H22 tumors. Put plainly: Anti-tumor efficacy of Compound 1 with and without anti-PD-L1 in the H22 subcutaneous syngeneic model (Example 6). The class given is in vivo, mice. The protocol:
Female BALB/c mice were inoculated subcutaneously at right flank with H22 tumor cells for tumor development. Treatment began on Day 6 post tumor inoculation and the mice were treated for 21 days. Tumor and weight measurements were continued for the duration of the study, and the survival was recorded until Day 106. The results are summarized Table 6-1, Table 6-2, and FIG. 23. In all cases the dosing volume was 10 ml/kg. PD-L1 antibody was obtained from Bioxcell.

Setting [3] is: Compound 1 0.3 mg/kg qd x 14, s.c.
The mark [4] stands for this setting: 0.7 mg/kg 5-day ON 2-day OFF x 3 cycles.
Setting [5] is: 1.4 mg/kg 5-day ON 2-day OFF x 3 cycles.
[6] abbreviates: Day 26, 0.7 mg/kg 5-day ON 2-day OFF x 3 cycles.
Where [7] appears, read: Day 26, 1.4 mg/kg 5-day ON 2-day OFF x 3 cycles.

Molecules are shown by their SMILES.

Broadly, the ILS is the gain in survival time of treated over control animals, in per cent. Low readings indicate a small benefit in survival, high ones a large benefit in survival. One may read the T/C as the ratio of treated to control. For the compound `CC(=O)N[C@@H](Cc1c[nH]c2ccccc12)C(=O)N[C@@H](CCC(=O)C=[N+]=[N-])C(=O)OC(C)C` [Compound 1, Isopropyl (S)-2-((S)-2-acetamido-3-(1H-indol-3-yl)propanamido)-6-diazo-5-oxohexanoate], the ILS came out at 52.6% in data set [1] (setting [3]) and 65.8% in data set [1] (Compound 1 1 mg/kg qd x 14, sc). Also, the MST is 29 days in data set [1] (setting [3]); 31.5 days in data set [1] (Compound 1 1 mg/kg qd x 14, sc); 45 days in data set [2] (setting [4]); 47 days in data set [2] (setting [5]). The “RTV at day 16” value worked out at 2.73 ± 0.37 in data set [1] (Cpd. 1 0.3 mg/kg qd x 14, s.c.) and 0.40 ± 0.11 in data set [1] (Cpd. 1 1 mg/kg qd x 14, sc). Besides, the T/C in data set [1] (Cpd. 1 0.3 mg/kg qd x 14, s.c.) worked out at 14.06%; in data set [1] (Cpd. 1 1 mg/kg qd x 14, sc), 2.08%. Besides, the TGI in data set [1] (Cpd. 1 0.3 mg/kg qd x 14, s.c.) was 90.53%; in data set [1] (Cpd. 1 1 mg/kg qd x 14, sc) it was 103.26%; in data set [2] (Compound 1 alone 0.7 mg/kg, p<0.001) it was around 80%; in data set [2] (Compound 1 alone 1.4 mg/kg, p<0.001), around 80%; in data set [2] (setting [6]) it was 79%; in data set [2] (setting [7]) it was 82%. The “Cure Rate” value in data set [2] (setting [4]) and in data set [2] (setting [5]) was 0% in each case. Besides, the BWC turned out to be 0% in data set [2] (setting [6]) and 7% in data set [2] (setting [7]). For the same compound, the “Mean Tumor Vol” value was 529 ± 64 mm^3 in data set [2] (setting [6]) and 465 ± 133 mm^3 in data set [2] (setting [7]).
